# In patent US10670605B2, “Cysteine reactive probes and uses thereof” (The Scripps Research Institute, priority 2015, dated 2020):
# Key:
# Experiment in all cases: Competitive isoTOP-ABPP in situ (fragment-treated cells)
# Type in all cases: cell-based
# [1] = biological target: cysteines in MDA-MB-231 and Ramos cells (Homo sapiens, UniProt Q15021)
# [2] = biological target: T1, cysteines in MDA-MB-231 and Ramos cells (Homo sapiens, UniProt Q96HE7)
# T1 sequence (Q96HE7 24-468): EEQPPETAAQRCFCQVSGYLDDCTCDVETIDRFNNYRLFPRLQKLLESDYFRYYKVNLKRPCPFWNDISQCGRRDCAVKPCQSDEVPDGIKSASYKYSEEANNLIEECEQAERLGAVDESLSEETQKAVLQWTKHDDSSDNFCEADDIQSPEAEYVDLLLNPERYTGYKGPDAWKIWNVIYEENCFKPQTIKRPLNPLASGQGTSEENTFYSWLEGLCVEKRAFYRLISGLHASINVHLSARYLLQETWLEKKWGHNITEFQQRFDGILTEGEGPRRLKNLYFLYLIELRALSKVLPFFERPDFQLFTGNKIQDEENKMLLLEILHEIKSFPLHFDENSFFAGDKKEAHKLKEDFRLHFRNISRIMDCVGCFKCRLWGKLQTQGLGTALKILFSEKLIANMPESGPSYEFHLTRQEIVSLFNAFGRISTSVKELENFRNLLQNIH
# [3] = biological target: cysteines in MDA-MB-231 and Ramos cells (Homo sapiens, UniProt Q9Y696)
# cysteines in MDA-MB-231 and Ramos cells (Homo sapiens, UniProt Q9Y696), sequence (Q9Y696 whole entry): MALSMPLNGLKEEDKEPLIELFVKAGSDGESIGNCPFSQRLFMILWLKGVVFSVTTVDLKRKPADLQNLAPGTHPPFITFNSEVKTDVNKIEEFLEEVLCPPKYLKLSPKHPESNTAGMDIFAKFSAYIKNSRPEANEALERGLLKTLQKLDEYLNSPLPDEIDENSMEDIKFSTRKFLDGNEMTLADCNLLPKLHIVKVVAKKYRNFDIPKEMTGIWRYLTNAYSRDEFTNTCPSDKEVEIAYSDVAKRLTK
# [4] = biological target: T2, cysteines in MDA-MB-231 and Ramos cells (Homo sapiens, UniProt Q13155)
# T2 sequence (Q13155 1-320): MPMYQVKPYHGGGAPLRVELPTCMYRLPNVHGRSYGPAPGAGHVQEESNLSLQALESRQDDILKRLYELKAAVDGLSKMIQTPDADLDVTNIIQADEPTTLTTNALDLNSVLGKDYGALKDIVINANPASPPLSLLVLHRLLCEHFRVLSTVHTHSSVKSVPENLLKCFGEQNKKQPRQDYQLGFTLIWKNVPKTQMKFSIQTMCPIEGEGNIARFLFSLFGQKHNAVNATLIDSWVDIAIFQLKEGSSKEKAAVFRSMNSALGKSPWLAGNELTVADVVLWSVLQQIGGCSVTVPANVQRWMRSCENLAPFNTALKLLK
# [5] = biological target: T3, cysteines in MDA-MB-231 and Ramos cells (Homo sapiens, UniProt Q9BVC5)
# T3 sequence (Q9BVC5 1-232): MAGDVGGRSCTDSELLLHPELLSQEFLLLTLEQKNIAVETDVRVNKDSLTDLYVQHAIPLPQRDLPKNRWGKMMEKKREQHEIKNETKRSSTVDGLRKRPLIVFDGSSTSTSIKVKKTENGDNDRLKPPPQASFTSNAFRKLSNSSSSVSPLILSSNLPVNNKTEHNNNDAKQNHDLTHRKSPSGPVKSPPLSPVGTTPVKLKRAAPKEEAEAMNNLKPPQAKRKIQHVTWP
# [6] = biological target: T4, cysteines in MDA-MB-231 and Ramos cells (Homo sapiens, UniProt P30101)
# T4 sequence (P30101 25-505): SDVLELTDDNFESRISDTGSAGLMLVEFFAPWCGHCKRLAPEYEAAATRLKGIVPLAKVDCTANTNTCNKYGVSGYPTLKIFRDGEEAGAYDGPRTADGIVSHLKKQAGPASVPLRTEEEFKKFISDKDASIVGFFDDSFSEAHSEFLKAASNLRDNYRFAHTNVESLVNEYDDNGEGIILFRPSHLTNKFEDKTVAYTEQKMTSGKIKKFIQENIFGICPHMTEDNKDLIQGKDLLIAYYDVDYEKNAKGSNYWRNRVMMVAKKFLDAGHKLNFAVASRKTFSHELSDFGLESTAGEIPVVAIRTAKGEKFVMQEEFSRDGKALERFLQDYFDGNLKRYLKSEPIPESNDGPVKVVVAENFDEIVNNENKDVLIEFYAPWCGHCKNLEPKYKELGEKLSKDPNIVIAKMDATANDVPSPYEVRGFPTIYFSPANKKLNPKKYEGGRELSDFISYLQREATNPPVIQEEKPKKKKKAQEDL
# [7] = biological target: cysteines in MDA-MB-231 and Ramos cells (Homo sapiens, UniProt Q9BUH6)
# cysteines in MDA-MB-231 and Ramos cells (Homo sapiens, UniProt Q9BUH6), sequence (Q9BUH6 whole entry): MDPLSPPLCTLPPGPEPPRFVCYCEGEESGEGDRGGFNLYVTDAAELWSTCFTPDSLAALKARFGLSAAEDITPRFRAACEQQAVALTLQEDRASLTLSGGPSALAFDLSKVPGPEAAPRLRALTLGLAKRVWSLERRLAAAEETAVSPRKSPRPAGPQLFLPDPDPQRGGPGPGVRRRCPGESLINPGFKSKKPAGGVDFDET
# [8] = biological target: cysteines in MDA-MB-231 and Ramos cells (Homo sapiens, UniProt Q93009)
# cysteines in MDA-MB-231 and Ramos cells (Homo sapiens, UniProt Q93009), sequence (Q93009 whole entry): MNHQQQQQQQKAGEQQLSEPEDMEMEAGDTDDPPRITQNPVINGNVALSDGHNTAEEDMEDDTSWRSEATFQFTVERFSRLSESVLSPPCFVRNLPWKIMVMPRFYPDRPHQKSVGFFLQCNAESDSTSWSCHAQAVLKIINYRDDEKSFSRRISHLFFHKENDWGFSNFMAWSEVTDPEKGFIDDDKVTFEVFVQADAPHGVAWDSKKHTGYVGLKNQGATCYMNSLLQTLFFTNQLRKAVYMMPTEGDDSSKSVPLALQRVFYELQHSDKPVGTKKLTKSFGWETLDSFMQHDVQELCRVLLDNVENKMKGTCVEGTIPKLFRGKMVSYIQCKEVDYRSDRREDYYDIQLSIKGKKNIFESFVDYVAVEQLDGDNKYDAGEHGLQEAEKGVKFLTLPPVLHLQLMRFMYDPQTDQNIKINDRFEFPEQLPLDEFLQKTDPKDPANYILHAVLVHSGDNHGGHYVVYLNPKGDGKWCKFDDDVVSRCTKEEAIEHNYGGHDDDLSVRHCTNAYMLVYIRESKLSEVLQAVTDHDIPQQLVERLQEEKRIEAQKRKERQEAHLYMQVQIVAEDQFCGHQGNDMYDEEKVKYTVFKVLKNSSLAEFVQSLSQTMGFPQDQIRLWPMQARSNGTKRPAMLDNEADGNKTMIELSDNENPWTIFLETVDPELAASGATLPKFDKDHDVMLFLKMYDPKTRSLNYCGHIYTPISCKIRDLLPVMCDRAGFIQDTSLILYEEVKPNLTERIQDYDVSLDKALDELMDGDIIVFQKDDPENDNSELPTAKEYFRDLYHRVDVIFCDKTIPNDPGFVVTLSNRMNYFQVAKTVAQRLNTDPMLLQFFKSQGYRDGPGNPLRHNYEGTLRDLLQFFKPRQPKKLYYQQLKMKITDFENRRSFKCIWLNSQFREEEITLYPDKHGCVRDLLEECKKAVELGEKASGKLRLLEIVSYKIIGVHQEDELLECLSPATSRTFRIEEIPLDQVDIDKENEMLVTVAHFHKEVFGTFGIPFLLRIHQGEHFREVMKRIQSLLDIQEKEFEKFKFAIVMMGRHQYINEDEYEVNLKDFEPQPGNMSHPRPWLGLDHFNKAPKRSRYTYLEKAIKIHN
# [9] = biological target: T5, cysteines in MDA-MB-231 and Ramos cells (Homo sapiens, UniProt P42224); settings: 200 μM, insitu
# T5 sequence (P42224 1-750): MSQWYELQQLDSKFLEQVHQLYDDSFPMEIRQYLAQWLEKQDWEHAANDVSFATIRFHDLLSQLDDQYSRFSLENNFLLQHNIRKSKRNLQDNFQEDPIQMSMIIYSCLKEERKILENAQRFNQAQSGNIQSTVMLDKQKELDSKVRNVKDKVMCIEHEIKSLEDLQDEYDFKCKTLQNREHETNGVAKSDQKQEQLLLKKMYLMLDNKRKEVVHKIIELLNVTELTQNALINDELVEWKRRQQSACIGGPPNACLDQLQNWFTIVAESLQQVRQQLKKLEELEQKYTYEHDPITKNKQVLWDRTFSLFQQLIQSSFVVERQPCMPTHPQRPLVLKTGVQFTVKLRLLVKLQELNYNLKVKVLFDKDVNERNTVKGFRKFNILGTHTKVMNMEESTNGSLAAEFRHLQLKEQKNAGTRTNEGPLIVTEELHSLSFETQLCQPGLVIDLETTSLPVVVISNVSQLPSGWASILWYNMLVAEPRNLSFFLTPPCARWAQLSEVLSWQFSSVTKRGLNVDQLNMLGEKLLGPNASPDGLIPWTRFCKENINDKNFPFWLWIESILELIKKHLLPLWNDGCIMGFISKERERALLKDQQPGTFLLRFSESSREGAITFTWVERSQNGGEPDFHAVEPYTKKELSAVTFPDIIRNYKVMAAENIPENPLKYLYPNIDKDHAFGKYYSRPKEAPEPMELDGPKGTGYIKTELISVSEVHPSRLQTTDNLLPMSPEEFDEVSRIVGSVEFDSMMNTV
# cysteines in MDA-MB-231 and Ramos cells (Homo sapiens, UniProt Q15021), sequence (Q15021 whole entry): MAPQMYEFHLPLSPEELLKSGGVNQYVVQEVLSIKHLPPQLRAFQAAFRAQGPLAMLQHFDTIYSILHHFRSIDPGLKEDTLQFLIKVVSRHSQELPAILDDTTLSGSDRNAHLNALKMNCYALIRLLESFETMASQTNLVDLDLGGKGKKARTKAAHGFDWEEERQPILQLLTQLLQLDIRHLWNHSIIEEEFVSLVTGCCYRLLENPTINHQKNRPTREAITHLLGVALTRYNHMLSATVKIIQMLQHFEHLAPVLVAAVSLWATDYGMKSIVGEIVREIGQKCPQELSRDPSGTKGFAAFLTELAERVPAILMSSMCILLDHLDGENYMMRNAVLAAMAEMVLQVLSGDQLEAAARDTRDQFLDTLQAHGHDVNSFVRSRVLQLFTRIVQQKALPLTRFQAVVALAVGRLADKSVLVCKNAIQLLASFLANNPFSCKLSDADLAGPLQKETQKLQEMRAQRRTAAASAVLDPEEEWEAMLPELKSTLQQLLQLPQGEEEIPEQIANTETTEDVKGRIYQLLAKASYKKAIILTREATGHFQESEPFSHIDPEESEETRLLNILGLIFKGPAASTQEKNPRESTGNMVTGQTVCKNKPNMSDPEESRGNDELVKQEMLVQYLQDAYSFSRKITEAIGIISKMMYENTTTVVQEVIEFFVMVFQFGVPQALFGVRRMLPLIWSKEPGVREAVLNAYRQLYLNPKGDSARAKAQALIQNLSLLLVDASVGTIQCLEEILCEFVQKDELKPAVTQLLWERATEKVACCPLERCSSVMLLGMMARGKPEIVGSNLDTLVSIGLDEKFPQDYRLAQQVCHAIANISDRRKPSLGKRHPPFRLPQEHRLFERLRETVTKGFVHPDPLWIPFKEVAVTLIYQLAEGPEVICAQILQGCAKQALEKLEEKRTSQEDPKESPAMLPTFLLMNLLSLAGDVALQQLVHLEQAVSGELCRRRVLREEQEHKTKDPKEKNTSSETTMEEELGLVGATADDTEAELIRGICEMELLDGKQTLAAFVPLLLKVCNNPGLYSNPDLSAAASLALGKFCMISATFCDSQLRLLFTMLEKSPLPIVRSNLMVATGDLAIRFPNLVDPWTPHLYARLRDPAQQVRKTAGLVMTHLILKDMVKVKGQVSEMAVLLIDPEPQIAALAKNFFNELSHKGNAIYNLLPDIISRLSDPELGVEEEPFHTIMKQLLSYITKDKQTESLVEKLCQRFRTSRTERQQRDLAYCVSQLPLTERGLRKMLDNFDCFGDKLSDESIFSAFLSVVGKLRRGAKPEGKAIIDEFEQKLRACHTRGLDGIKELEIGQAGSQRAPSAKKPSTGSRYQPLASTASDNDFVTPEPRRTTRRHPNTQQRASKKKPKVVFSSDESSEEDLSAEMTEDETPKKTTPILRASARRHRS
SMILES,"isoTOP-ABPP ratio Q15021_C439 ([1]; 200 μM, insitu, 231)","isoTOP-ABPP ratio Q96HE7_C241 ([2]; 200 μM, insitu, 231)","isoTOP-ABPP ratio Q9Y696_C35 ([3]; 200 μM, insitu, 231)","isoTOP-ABPP ratio Q13155_C23 ([4]; 200 μM, insitu, 231)","isoTOP-ABPP ratio Q13155_C291 ([4]; 200 μM, insitu, 231)",isoTOP-ABPP ratio P42224_C492 [9]; 231,"isoTOP-ABPP ratio Q9BVC5_C10 ([5]; 200 μM, insitu, 231)","isoTOP-ABPP ratio P30101_C57 ([6]; 200 μM, insitu, 231)","isoTOP-ABPP ratio P30101_C406 ([6]; 200 μM, insitu, 231)","isoTOP-ABPP ratio Q9BUH6_C180 ([7]; 200 μM, insitu, 231)","isoTOP-ABPP ratio Q93009_C223 ([8]; 200 μM, insitu, 231)",also measured
COc1ccc(C2CC(c3cccs3)=NN2C(=O)CCl)cc1 (stereo not shown) [compound 4],–,–,–,–,–,–,–,–,–,–,–,isoTOP-ABPP reactivity Q15021_C439 NCAPD2 ([1]; 100 μM in situ 231): 2.2; isoTOP-ABPP reactivity Q96HE7_C37 ERO1L ([2]; 100 μM in situ 231): 5.4; isoTOP-ABPP reactivity Q96HE7_C241 ERO1L ([2]; 100 μM in situ 231): 3.0; isoTOP-ABPP reactivity Q9Y696_C35 CLIC4 ([3]; 100 μM in situ 231): 20.0; isoTOP-ABPP reactivity Q13155_C23 AIMP2 ([4]; 100 μM in situ 231): 2.8; isoTOP-ABPP reactivity Q13155_C291 AIMP2 ([4]; 100 μM in situ 231): 20.0; isoTOP-ABPP reactivity Q9BVC5_C10 C2orf49 ([5]; 100 μM in situ 231): 3.3; isoTOP-ABPP reactivity P30101_057 PDIA3 ([6]; 100 μM in situ 231): 20.0; isoTOP-ABPP reactivity P30101_C406 PDIA3 ([6]; 100 μM in situ 231): 9.0; isoTOP-ABPP reactivity Q9BUH6_C180 C9orf142 ([7]; 100 μM in situ 231): 1.2; isoTOP-ABPP reactivity Q93009_C223 USP7 ([8]; 100 μM in situ 231): 6.8
COc1cc2c(cc1OC)CN(C(=O)CCl)CC2 [compound 8],–,–,–,–,–,–,–,–,–,–,–,"isoTOP-ABPP reactivity Q15021_C439 NCAPD2 ([1]; 200 μM, insitu, 231): 0.6; isoTOP-ABPP reactivity Q96HE7_C241 ERO1L ([2]; 200 μM, insitu, 231): 3.7; isoTOP-ABPP reactivity Q9Y696_C35 CLIC4 ([3]; 200 μM, insitu, 231): 4.7; isoTOP-ABPP reactivity Q13155_C23 AIMP2 ([4]; 200 μM, insitu, 231): 2.7; isoTOP-ABPP reactivity Q13155_C291 AIMP2 ([4]; 200 μM, insitu, 231): 2.4; isoTOP-ABPP reactivity Q9BVC5_C10 C2orf49 ([5]; 200 μM, insitu, 231): 4.5; isoTOP-ABPP reactivity P30101_057 PDIA3 ([6]; 200 μM, insitu, 231): 20.0; isoTOP-ABPP reactivity P30101_C406 PDIA3 ([6]; 200 μM, insitu, 231): 20.0; isoTOP-ABPP reactivity Q9BUH6_C180 C9orf142 ([7]; 200 μM, insitu, 231): 6.6; isoTOP-ABPP reactivity Q93009_C223 USP7 ([8]; 200 μM, insitu, 231): 20.0"
O=C(CCl)N1CCN(S(=O)(=O)c2ccccc2F)CC1 [compound 10],5.2,2.0,2.7,2.3,1.7,20.0,3.1,3.3,3.3,3.8,2.5,"isoTOP-ABPP ratio Q9Y696_C35 ([3]; 200 μM, insitu, ramos): 1.6; isoTOP-ABPP ratio P30101_C406 ([6]; 200 μM, insitu, ramos): 1.4"
O=C(CCl)NC(=O)NC12CC3CC(CC(C3)C1)C2 [compound 12],6.7,16.4,20.0,1.6,1.1,1.0,2.9,20.0,20.0,1.4,3.1,–
COc1ccccc1OCCNC(=O)CCl [compound 28],0.9,1.1,2.7,–,0.9,0.8,0.9,1.6,–,1.1,1.0,–
O=C(CCl)N1CCN(CC(=O)N2CCOCC2)CC1 [compound 29],–,–,–,–,–,–,–,–,–,–,–,"isoTOP-ABPP ratio Q15021_C439 ([1]; 200 μM, insitu, ramos): 1.4; isoTOP-ABPP ratio Q96HE7_C37 ([2]; 200 μM, insitu, ramos): 2.1; isoTOP-ABPP ratio Q96HE7_C241 ([2]; 200 μM, insitu, ramos): 1.3; isoTOP-ABPP ratio Q9Y696_C35 ([3]; 200 μM, insitu, ramos): 1.0; isoTOP-ABPP ratio Q13155_C23 ([4]; 200 μM, insitu, ramos): 1.6; isoTOP-ABPP ratio P42224_C492 ([9]; ramos): 3.8; isoTOP-ABPP ratio Q9BVC5_C10 ([5]; 200 μM, insitu, ramos): 1.8; isoTOP-ABPP ratio P30101_C57 ([6]; 200 μM, insitu, ramos): 1.2; isoTOP-ABPP ratio P30101_C406 ([6]; 200 μM, insitu, ramos): 1.5; isoTOP-ABPP ratio Q9BUH6_C180 ([7]; 200 μM, insitu, ramos): 1.5; isoTOP-ABPP ratio Q93009_C223 ([8]; 200 μM, insitu, ramos): 1.0"
C=CC(=O)Nc1cc(F)c(N2CCN(C(=O)OC(C)(C)C)CC2)c(F)c1 [compound 38],1.1,1.6,1.0,1.4,1.7,–,0.9,0.9,0.8,1.4,"0,8","isoTOP-ABPP ratio Q96HE7_C37 ([2]; 200 μM, insitu, 231): 3.4"
